Reference: PubChem BioAssay (NCI)
Values joined by “and” are separate entries in the source; they are usually repeats but may differ in a detail not shown here. Equal entries are not always repeated.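 Growth conditions: 96-well plates. Treatment: test compound, 48 hours, 5 concentrations. Analysis: linear interpolation between bracketing concentrations; unreached endpoints set to highest concentration. Here, GI50 denotes the concentration required for 50% inhibition of growth. TGI: total growth inhibition.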

Key:
Experiment in all cases: growth of human tumour cells (NCI), 48 h
SK-MEL-5 melanoma = tested on: SK-MEL-5 melanoma
NCI-H23 lung = tested on: NCI-H23 lung
UO-31 renal = tested on: UO-31 renal
SR leukemia = tested on: SR leukemia
SN12C renal = tested on: SN12C renal
TK-10 renal = tested on: TK-10 renal
HOP-92 NSCLC = tested on: HOP-92 NSCLC
SK-OV-3 ovarian = tested on: SK-OV-3 ovarian

Row | SMILES | TGI (SK-MEL-5 melanoma) | TGI (NCI-H23 lung) | TGI (UO-31 renal) | TGI (SR leukemia) | TGI (SN12C renal) | TGI (TK-10 renal) | TGI (HOP-92 NSCLC) | TGI (SK-OV-3 ovarian) | GI50 (SK-MEL-5 melanoma) | GI50 (TK-10 renal) | GI50 (NCI-H23 lung) | GI50 (UO-31 renal) | GI50 (SK-OV-3 ovarian) | GI50 (SR leukemia) | GI50 (SN12C renal)
1 | CCOC(=O)C(C(=O)OCC)=C1N[C@H](C(=O)OCC)CS1 | > 100 µM | > 100 µM | > 100 µM | > 100 µM | > 100 µM | – | – | – | – | – | – | – | – | – | –
2 | CCCCCNC(=O)c1c(O)[nH]c(=S)[nH]c1=O | > 100 µM | > 100 µM | – | > 100 µM | > 100 µM | > 100 µM | > 100 µM | > 100 µM | – | – | – | – | – | – | –
3 | O=C(c1nc2ccc(Cl)cc2[nH]c1=O)C(O)c1ccc2c(c1)OCO2 (configuration not stated) | – | > 100 µM | > 100 µM | – | – | > 100 µM | > 100 µM | > 100 µM | – | – | – | – | – | – | –
4 | Cc1c(C(=O)/C=C/c2c(Cl)cccc2Cl)c(=O)n(-c2ccccc2)n1C | – | – | > 100 µM | – | > 100 µM | > 100 µM | 74.6 µM | > 100 µM | – | – | – | – | – | – | –
5 | CC(=O)c1ccc(NC(=O)C(=O)C(C(=O)c2ccc(Cl)c(Cl)c2)C2OC(=O)c3ccccc32)cc1 (configuration not stated) | – | 32.2 µM | > 100 µM | > 100 µM | 59.9 µM | > 100 µM | 78.4 µM | > 100 µM | – | – | – | – | – | – | –
6 | CCC1CC(C)=CCN1S(=O)(=O)c1ccc(C)cc1 (configuration not stated) | 26.8 µM | – | 66.6 µM | 32.7 µM | 24.3 µM | – | – | > 100 µM | – | – | – | – | – | – | –
7 | O=C(O)c1cccc2cccc(C(=O)O)c12.[Hg] | 27 µM | 29.9 µM | 35 µM | 23.5 µM | 27.7 µM | 34.6 µM | – | 33.9 µM | 14 µM | 20.3 µM | 15.7 µM | 20.7 µM | 19.6 µM | 4.05 µM | 14.6 µM
8 | CCOC(=O)N[C@@H]1C2CC(=O)C(O2)[C@@H]1OC (some centres not stated) | > 100 µM | > 100 µM | > 100 µM | > 100 µM | > 100 µM | > 100 µM | > 100 µM | > 100 µM | – | – | – | – | – | – | –
9 | CCOC(=O)C(=O)Nc1c(C)cccc1C(C)C | > 100 µM | > 100 µM | > 100 µM | > 100 µM | > 100 µM | > 100 µM | > 100 µM | > 100 µM | – | – | – | – | – | – | –
10 | CCCCCCCCCCCCCCCCCC(=O)OCC(C[As](=O)(O)O)OC(=O)CCCCCCCCCCCCCCCCC (configuration not stated) | > 100 µM | > 100 µM | > 100 µM | 38.9 µM | > 100 µM | > 100 µM | 40.4 µM | 50 µM | – | – | – | – | – | – | –
11 | NCCCNCCSSC/C=C\CSSCCNCCCN | > 100 µM | > 100 µM | > 100 µM | – | > 100 µM | > 100 µM | 86.3 µM and 84.5 µM | > 100 µM | – | – | – | – | – | – | –
12 | O=NN/C(=C1\Nc2ccc([N+](=O)[O-])cc2NC1=O)C(O)c1ccc([N+](=O)[O-])cc1 (configuration not stated) | > 100 µM | > 100 µM | > 100 µM | > 100 µM | > 100 µM | – | > 100 µM | > 100 µM | – | – | – | – | – | – | –
13 | Cc1ccc(C(=O)C#Cc2c[nH]c(=O)[nH]c2=O)cc1 | 26.5 µM | 39.6 µM | 37.7 µM | – | 16.2 µM | 31.9 µM | 33.3 µM | 73.6 µM | – | – | – | – | – | – | –
14 | CC1=NC(C(C)C)C(=O)O1 (configuration not stated) | > 100 µM | > 100 µM | > 100 µM | – | > 100 µM | > 100 µM | > 100 µM | > 100 µM | – | – | – | – | – | – | –
15 | COC(=O)C(Cc1ccccc1)NC(=O)Cn1ccnc1[N+](=O)[O-] (configuration not stated) | > 100 µM | > 100 µM | > 100 µM | – | > 100 µM | > 100 µM | > 100 µM | > 100 µM | – | – | – | – | – | – | –
16 | COc1ccc(NC(=O)CC(=O)N2N=C(N(CCC#N)c3cccc(C)c3)CC2c2ccccc2)cc1 (configuration not stated) | > 100 µM | > 100 µM | > 100 µM | > 100 µM | > 100 µM | – | > 100 µM | > 100 µM | – | – | – | – | – | – | –
17 | COC1OC(COS(=O)(=O)c2ccc(C)cc2)C(O)C(OS(=O)(=O)c2ccc(C)cc2)C1OS(=O)(=O)c1ccc(C)cc1 (configuration not stated) | > 100 µM | > 100 µM | > 100 µM | > 100 µM | > 100 µM | – | – | > 100 µM | – | – | – | – | – | – | –
18 | COc1ccc(-c2cc(-c3cc(C)ccc3O)[nH]c(=O)n2)cc1 | – | > 100 µM | > 100 µM | > 100 µM | > 100 µM | > 100 µM | > 100 µM | > 100 µM | – | – | – | – | – | – | –
19 | COC(=O)C1=C(CS(=O)c2ccc([N+](=O)[O-])cc2[N+](=O)[O-])ON(C)C1c1ccccc1 (configuration not stated) | > 100 µM | > 100 µM | > 100 µM | – | > 63.3 µM | > 74.8 µM | – | > 100 µM | – | – | – | – | – | – | –
20 | CC1=CC(=O)c2c(C=O)c(O)c(O)c(C(C)C)c2C1=O | 65 µM | > 85.5 µM | > 56.8 µM | > 74.4 µM | > 100 µM | – | 45.5 µM | > 100 µM | – | – | – | – | – | – | –
21 | NC(=O)NC1=NC(Cc2ccccc2)C(=O)N1Cc1ccccc1 (configuration not stated) | > 100 µM | > 100 µM | > 100 µM | > 100 µM | > 100 µM | > 100 µM | – | > 100 µM | – | – | – | – | – | – | –
